Among the data in US20230265068A1, “TRANSIENT RECEPTOR POTENTIAL CANONICAL 3 INHIBITORS AND METHODS OF USE THEREOF” (University of Tennessee Research Foundation, priority 2020, published 2023) are inhibition, TRPC3 inhibition and IC50 values, retold here.

For assay [1], the target named is T1, TRPC3 (Homo sapiens, UniProt Q13507).
T1 sequence (Q13507 1-921): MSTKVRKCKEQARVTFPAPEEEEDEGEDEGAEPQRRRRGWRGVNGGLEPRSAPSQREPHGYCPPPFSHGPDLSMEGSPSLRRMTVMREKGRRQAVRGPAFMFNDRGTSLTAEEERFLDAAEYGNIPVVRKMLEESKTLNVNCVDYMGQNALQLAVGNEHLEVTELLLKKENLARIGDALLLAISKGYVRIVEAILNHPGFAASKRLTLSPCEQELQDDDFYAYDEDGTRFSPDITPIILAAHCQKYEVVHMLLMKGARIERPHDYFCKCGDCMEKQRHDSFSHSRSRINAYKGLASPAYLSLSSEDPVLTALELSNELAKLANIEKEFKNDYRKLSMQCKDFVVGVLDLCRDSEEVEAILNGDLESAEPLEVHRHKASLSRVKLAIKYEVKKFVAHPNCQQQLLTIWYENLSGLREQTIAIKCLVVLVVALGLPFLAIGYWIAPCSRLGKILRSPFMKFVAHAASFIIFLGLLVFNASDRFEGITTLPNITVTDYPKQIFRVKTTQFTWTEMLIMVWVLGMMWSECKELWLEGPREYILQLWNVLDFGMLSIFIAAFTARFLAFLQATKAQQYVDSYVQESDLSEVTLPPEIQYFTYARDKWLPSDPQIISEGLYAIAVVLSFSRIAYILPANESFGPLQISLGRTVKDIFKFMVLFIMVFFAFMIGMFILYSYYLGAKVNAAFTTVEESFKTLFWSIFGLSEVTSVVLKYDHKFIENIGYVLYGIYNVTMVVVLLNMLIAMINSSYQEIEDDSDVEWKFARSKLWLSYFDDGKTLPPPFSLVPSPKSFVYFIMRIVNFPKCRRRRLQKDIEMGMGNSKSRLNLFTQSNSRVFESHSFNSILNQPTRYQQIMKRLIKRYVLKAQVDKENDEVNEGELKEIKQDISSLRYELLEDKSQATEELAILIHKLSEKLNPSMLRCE
In words: whole-cell patch clamp of HEK293 cells transfected with hTRPC3, currents activated by GSK1702934A. It is filed as cell-based. Also on record: expressed in transfected cells; host or cells: HEK293 (CRL-1573), transient transfection, pMO vector. The following applies: for inhibition at 10 µM: 10 μM compound in presence of agonist GSK1702934A, HEK293 whole-cell peak current, read-out: hTRPC3 % Inhibition at 10 μM (mean ± SEM); for IC50: agonist GSK1702934A, HEK293 whole-cell patch clamp, read-out: hTRPC3 IC50 (μM, mean ± SEM). As for the experimental part:
Human embryonic kidney 293 (HEK293; catalog number CRL-1573) cells were cultured in Dulbecco's modified Eagle's medium (Invitrogen) supplemented with 10% fetal bovine serum and 1% penicillin-streptomycin at 37° C. and 5% CO2. Constructs cloned in pMO (a pcDNA3-modified vector) were co-transfected with GFP-pMO, using Lipofectamine 2000 (Invitrogen) according to the manufacturer's instructions. Macroscopic currents in the whole-cell patch clamp configuration were recorded 18-24 h post-transfection. The extracellular solution contained 140 mM NaCl, 6 mM KCl, 2 mM MgCl2, 10 mM HEPES, and 10 mM glucose (pH 7.4). Pipettes were made of borosilicate glass (outer diameter, 1.5 mm; inner diameter, 1.10 mm; Sutter Instruments) and fire-polished with a resistance between 2.8 and 4.0 megaohms when filled with an intracellular solution that contained 140 mM CsCl, 5 mM EGTA, and 10 mM HEPES, pH 7.2. Currents were recorded with a Multiclamp 700B amplifier (Molecular Devices) using a 1-s ramp from −100 to 100 mV. Agonist and antagonists perfused were dissolved in the bath solution prior experiments: TRP channel agonists Allyl isothiocyanate (AITC; TRPA1), capsaicin (TRPV1), and menthol (TRPM8) were obtained from Sigma, GSK1016790A (TRPV4) from Cayman chemicals, and GSK1702934A (TRPC3, TRPC6 and TRPC7) from Tocris Bioscience. Antagonist Pyr3 was obtained from Tocris Bioscience, all other antagonists were synthesized in house. Data were acquired with a sampling rate of 20 kHz, low-pass filtered (10 kHz), and analyzed offline using Clampfit v10.4.2.0 (Molecular Devices).
Electrophysiology results were expressed as means±SD. Data were plotted, and sigmoidal fitting was done using OriginPro (from OriginLab), with the following Boltzmann function:
Using the patch clamp technique in the whole-cell configuration, compounds were screened by challenging hTRPC3 overexpressing HEK293 cells with GSK1702934A to activate TRPC3 and each of the synthesized compounds (10 μM) individually in the presence of the agonist.
To avoid tachyphylaxis and determine the IC50 of compound 22, each point of the dose response curve (FIG. 1B) was done individually on a cell and exchanging coverslips between cells. […] FIGS. 1D-1I show the inhibition of TRPC3-mediated currents by compound 22 and Pyr3 (serving as the reference control). […] Similar results were obtained when OAG was used as the agonist (data not shown).
In general terms: In patch-clamp work, channel activity is measured electrically.

For assay [2], the target named is T1, TRPC3. The following applies: literature ref 21; cited from earlier work.

Regarding `CCNC(=O)c1nn(-c2ccc(-n3ccc(Cl)c(Cl)c3=O)cc2)nc1C(F)(F)F` [Compound 63, 2-(4-(3,4-dichloro-2-oxopyridin-1(2H)-yl)phenyl)-N-ethyl-5-(trifluoromethyl)-2H-1,2,3-triazole-4-carboxamide], the inhibition (usually the drop in the measured response relative to a control, in per cent) at 10 µM on TRPC3 [1] was 86.9 ± 3.83%. As for `CS(=O)(=O)c1cnn(-c2ccc(-n3ccc(Cl)c(Cl)c3=O)cc2)c1C(F)(F)F` [Compound 73, 3,4-Dichloro-1-(4-(4-(methylsulfonyl)-5-(trifluoromethyl)-1H-pyrazol-1-yl)phenyl)pyridine-2(1H)-one], the inhibition at 10 µM at TRPC3 [1] came to 72.7 ± 7.96%. `CC(=O)c1cnn(-c2ccc(-n3ccc(Cl)cc3=O)cc2)c1C(F)(F)F` [Compound 66, 1-(4-(4-acetyl-5-(trifluoromethyl)-1H-pyrazol-1-yl)phenyl)-4-chloropyridin-2(1H)-one]: the inhibition at 10 µM on TRPC3 [1] came out at 60.4 ± 5.12%. Regarding `O=C(Nc1ccc(-n2ncc(C(=O)O)c2C(F)(F)F)cc1)C(Cl)=C(Cl)Cl` [Pyr8], the TRPC3 inhibition result at TRPC3 [2] was “little TRPC3 inhibition”.

Regarding `CCNC(=O)c1cnn(-c2ccc(-n3cc(Cl)c(Cl)cc3=O)cc2)c1C(F)(F)F` [Compound 23], at TRPC3 [1], the inhibition at 10 µM worked out at 51.5 ± 6%. With `CCC(=O)Nc1cnn(-c2ccc(-n3ccc(Cl)c(Cl)c3=O)cc2)c1C(F)(F)F` [Compound 58, N-(1-(4-(3,4-dichloro-2-oxopyridin-1(2H)-yl)phenyl)-5-(trifluoromethyl)-1H-pyrazol-4-yl)propionamide], at TRPC3 [1], the inhibition at 10 µM came to 86 ± 2.8%. Same read-out and setting: to `CCOC(=O)c1cnn(-c2ccc(-n3cc(Cl)c(Cl)c(Cl)c3=O)cc2)c1C(F)(F)F` [Compound 9, Ethyl 1-(4-(3,4,5-trichloro-2-oxopyridin-1(2H)-yl)phenyl)-5-(trifluoromethyl)-1H-pyrazole-4-carboxylate] belongs 39.1 ± 2.31%; to `CC(C)NC(=O)c1cnn(-c2ccc(-n3ccc(Cl)c(Cl)c3=O)cc2)c1C(F)(F)F` [Compound 41, 1-(4-(3,4-dichloro-2-oxopyridin-1(2H)-yl)phenyl)-N-isopropyl-5-(trifluoromethyl)-1H-pyrazole-4-carboxamide], 25.8 ± 8.57%. For the compound `CCNC(=O)c1cnn(-c2ccc(-n3ccc(O)c(Cl)c3=O)cc2)c1C(F)(F)F` [Compound 32, 1-(4-(3-chloro-4-hydroxy-2-oxopyridin-1(2H)-yl)phenyl)-N-ethyl-5-(trifluoromethyl)-1H-pyrazole-4-carboxamide], at TRPC3 [1], the inhibition at 10 µM stood at 96 ± 1.37% and the half-inhibitory concentration (IC50) (usually the concentration needed to halve the response being measured) was determined as 0.35 ± 0.09 µM. With `CCNC(=O)c1sc(-c2ccc(-n3ccc(Cl)c(Cl)c3=O)cc2)nc1C(F)(F)F` [Compound 65, 2-(4-(3,4-dichloro-2-oxopyridin-1(2H)-yl)phenyl)-N-ethyl-4-(trifluoromethyl)thiazole-5-carboxamide], the inhibition at 10 µM on TRPC3 [1] worked out at 54.9 ± 4.61%.

Regarding `CCN(CC)C(=O)c1cnn(-c2ccc(-n3ccc(Cl)c(Cl)c3=O)cc2)c1C(F)(F)F` [Compound 43, 1-(4-(3,4-dichloro-2-oxopyridin-1(2H)-yl)phenyl)-N,N-diethyl-5-(trifluoromethyl)-1H-pyrazole-4-carboxamide], on TRPC3 [1], the inhibition at 10 µM came out at 94.8 ± 2.75% and the IC50 is 4.32 ± 0.98 µM. `CCOC(=O)c1cnn(-c2ccc(-n3ccc(Cl)cc3=O)cc2)c1C(F)(F)F` [Compound 2, Ethyl 1-(4-(4-chloro-2-oxopyridin-1(2H)-yl)phenyl)-5-(trifluoromethyl)-1H-pyrazole-4-carboxylate]: at TRPC3 [1], the inhibition at 10 µM is 71.1 ± 2.66%. Same read-out and setting: as for `CCCC(=O)c1cnn(-c2ccc(-n3ccc(Cl)c(Cl)c3=O)cc2)c1C(F)(F)F` [Compound 69, 1-(4-(4-butyryl-5-(trifluoromethyl)-1H-pyrazol-1-yl)phenyl)-3,4-dichloropyridin-2(1H)-one], the figure is 63.4 ± 4.83%. With `CCOC(=O)c1cnn(-c2ccc(-n3cc(Cl)cc(Cl)c3=O)cc2)c1C(F)(F)F` [Compound 6, Ethyl 1-(4-(3,5-dichloro-2-oxopyridin-1(2H)-yl)phenyl)-5-(trifluoromethyl)-1H-pyrazole-4-carboxylate], the inhibition at 10 µM at TRPC3 [1] worked out at 50.5 ± 5.49%. For the compound `CCNC(=O)c1cnn(-c2ccc(-n3ccc(Cl)c(Br)c3=O)cc2)c1C(F)(F)F` [Compound 25, 1-(4-(3-bromo-4-chloro-2-oxopyridin-1(2H)-yl)phenyl)-N-ethyl-5-(trifluoromethyl)-1H-pyrazole-4-carboxamide], the inhibition at 10 µM on TRPC3 [1] is 76 ± 6.65%.

On to `CCc1nnc(-c2cnn(-c3ccc(-n4ccc(Cl)c(Cl)c4=O)cc3)c2C(F)(F)F)o1` [Compound 46, 3,4-dichloro-1-(4-(4-(5-ethyl-1,3,4-oxadiazol-2-yl)-5-(trifluoromethyl)-1H-pyrazol-1-yl)phenyl)pyridin-2(1H)-one], for which, on TRPC3 [1], the inhibition at 10 µM stood at 92.9 ± 6.78% and the IC50 was determined as 0.29 ± 0.05 µM. Turning to `CCNC(=O)c1nnn(-c2ccc(-n3ccc(Cl)c(Cl)c3=O)cc2)c1C(F)(F)F` [Compound 61, 1-(4-(3,4-dichloro-2-oxopyridin-1(2H)-yl)phenyl)-N-ethyl-5-(trifluoromethyl)-1H-1,2,3-triazole-4-carboxamide], the inhibition at 10 µM on TRPC3 [1] came out at 47.1 ± 8.29%.

Turning to `NC(=O)c1cnn(-c2ccc(-n3ccc(Cl)c(Cl)c3=O)cc2)c1C(F)(F)F` [Compound 37, 1-(4-(3,4-dichloro-2-oxopyridin-1(2H)-yl)phenyl)-5-(trifluoromethyl)-1H-pyrazole-4-carboxamide], the inhibition at 10 µM at TRPC3 [1] came to 40.2 ± 10.3%.

Turning to `CCCCNC(=O)c1cnn(-c2ccc(-n3ccc(Cl)c(Cl)c3=O)cc2)c1C(F)(F)F` [Compound 40, N-butyl-1-(4-(3,4-dichloro-2-oxopyridin-1(2H)-yl)phenyl)-5-(trifluoromethyl)-1H-pyrazole-4-carboxamide], on TRPC3 [1], the inhibition at 10 µM turned out to be 40.2 ± 3.95%. Regarding `CCOC(=O)c1cnn(-c2ccc(-n3cc(Cl)ccc3=O)cc2)c1C(F)(F)F` [Compound 3, Ethyl 1-(4-(5-chloro-2-oxopyridin-1(2H)-yl)phenyl)-5-(trifluoromethyl)-1H-pyrazole-4-carboxylate], on TRPC3 [1], the inhibition at 10 µM turned out to be 54 ± 7.25%.
